Results reported in the supplement of paper PMC10627819.

Experiments:
[1] = test system: B. subtilis 168; assay: Bliss interaction score (quartile over a dose matrix) (fitness difference); higher = more antagonism (negative = synergy)
How it was run: (§1)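 Quartiles summarise the Bliss score over technical, biological and donor/recipient replicates, where the score is observed minus expected fitness under a product model. Expected fitness uses single-drug values inferred from combination data. Fitness is OD595 at entry into stationary phase over the plate's robust no-drug mean, capped at 1.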

[2] = test system: S. aureus Newman; assay: as above
How it was run: as §1

[3] = test system: S. aureus DSM 20231; assay: as above
How it was run: as §1

[4] = test system: S. pneumoniae D39V; assay: as above
How it was run: as §1

[5] = test system: S. aureus Newman; assay: fitness (endpoint OD595 vs no drug) (fraction); higher = more growth; conditions: main component drawn
How it was run: (§2)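 Growth medium was TSB, LB Lennox or CY, and plates were kept at 37 °C. Inoculation was at OD595 0.01 in 384-well plates, at 30 µl per well or 55 µl for S. pneumoniae. OD595 was monitored every 30 min for 14 h and background-subtracted using the first reading. Fitness is the optical density on entering stationary phase divided by the robust mean of no-drug controls, with values capped at 1.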

[6] = test system: S. pneumoniae D39V; assay: as above
How it was run: as §2

[7] = test system: B. subtilis 168; assay: as above
How it was run: as §2
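Throughout, for Bliss interaction score (quartile over a dose matrix): first quartile when negative (synergy) and third quartile when positive (antagonism).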

CC[C@H](C)[C@H](N)C1=N[C@H](C(=O)N[C@@H](CC(C)C)C(=O)N[C@H](CCC(=O)O)C(=O)N[C@H](C(=O)N[C@H]2CCCCNC(=O)[C@H](CC(N)=O)NC(=O)[C@@H](CC(=O)O)NC(=O)[C@H](Cc3cnc[nH]3)NC(=O)[C@@H](Cc3ccccc3)NC(=O)[C@H]([C@@H](C)CC)NC(=O)[C@@H](CCCN)NC2=O)[C@@H](C)CC)CS1 [Bacitracin] + CO/N=C(\C(=O)N[C@@H]1C(=O)N2C(C(=O)[O-])=C(C[N+]3(C)CCCC3)CS[C@H]12)c1csc(N)n1 [Cefepime]
main component drawn
Conditions | Bliss interaction score
[1] | -0.124
[2] | -0.0863
[3] | 0.0889
[4] | -0.144

fitness, [5]
Conditions | first compound 18.75 µg/mL | first compound 37.5 µg/mL | first compound 75 µg/mL
partner 0.125 µg/mL | 0.699 | – | 0.0274
partner 0.25 µg/mL | 0.634 | – | 0.0298
partner 0.5 µg/mL | – | 0.0986 | 0.0408

CO[C@H]1/C=C/O[C@@]2(C)Oc3c(C)c(O)c4c(O)c(c(/C=N/N5CCN(C)CC5)c(O)c4c3C2=O)NC(=O)/C(C)=C\C=C\[C@H](C)[C@H](O)[C@@H](C)[C@@H](O)[C@@H](C)[C@H](OC(C)=O)[C@@H]1C [Rifampicin] + CN[C@H](CC(C)C)C(=O)N[C@H]1C(=O)N[C@@H](CC(N)=O)C(=O)N[C@H]2C(=O)N[C@H]3C(=O)N[C@H](C(=O)N[C@H](C(=O)O)c4cc(O)cc(O)c4-c4cc3ccc4O)[C@H](O)c3ccc(c(Cl)c3)Oc3cc2cc(c3O[C@@H]2O[C@H](CO)[C@@H](O)[C@H](O)[C@H]2O[C@H]2C[C@](C)(N)[C@H](O)[C@H](C)O2)Oc2ccc(cc2Cl)[C@H]1O [Vancomycin]
Conditions | Bliss interaction score
[1] | 0.029
[2] | 0.0383
[3] | -0.0199
[4] | 0.135

fitness, [6], one replicate
Conditions | partner 0.125 µg/mL | partner 0.25 µg/mL | partner 0.5 µg/mL
first compound 0.025 µg/mL | 0.903 | 0.823 | 0.267
first compound 0.2 µg/mL | – | 0 | 0

fitness, [6]
Conditions | partner 0.03125 µg/mL | partner 0.0625 µg/mL | partner 0.125 µg/mL | partner 0.25 µg/mL | partner 0.5 µg/mL
first compound 0.05 µg/mL | 0.886 | 0.846 | – | 0.707 | 0.299
first compound 0.1 µg/mL | 0.537 | 0.476 | – | – | –
first compound 0.2 µg/mL | 0.162 | 0.161 | 0.0937 | – | –

CC(=O)NC[C@H]1CN(c2ccc(N3CCOCC3)c(F)c2)C(=O)O1 [Linezolid] + CO[C@H]1/C=C/O[C@@]2(C)Oc3c(C)c(O)c4c(O)c(c(/C=N/N5CCN(C)CC5)c(O)c4c3C2=O)NC(=O)/C(C)=C\C=C\[C@H](C)[C@H](O)[C@@H](C)[C@@H](O)[C@@H](C)[C@H](OC(C)=O)[C@@H]1C [Rifampicin]
Conditions | Bliss interaction score
[1] | -0.0404
[2] | -0.0225
[3] | -0.0505
[4] | -0.0681

fitness, [6]
Conditions | first compound 0.105 µg/mL | first compound 0.2 µg/mL | first compound 0.21 µg/mL | first compound 0.42 µg/mL | first compound 0.8 µg/mL
partner 0.05 µg/mL | – | 0.69 | 0.182 | 0.171 | 0.348
partner 0.1 µg/mL | 0.17 | – | 0.135 | 0.103 | 0.216
partner 0.2 µg/mL | 0.127 | – | 0.0997 | 0.113 | –

fitness, [6], one replicate
Conditions | first compound 0.2 µg/mL | first compound 0.4 µg/mL | first compound 0.8 µg/mL
partner 0.025 µg/mL | 0.809 | 0.685 | 0.298
partner 0.2 µg/mL | 0 | 0 | 0

CC(=O)NC[C@H]1CN(c2ccc(N3CCOCC3)c(F)c2)C(=O)O1 [Linezolid] + C/C(=C\C(=O)OCCCCCCCCC(=O)O)C[C@@H]1OC[C@H](C[C@@H]2O[C@H]2[C@@H](C)[C@H](C)O)[C@@H](O)[C@H]1O [Pseudomonic acid]
Conditions | Bliss interaction score
[1] | -0.0357
[2] | 0.0446
[3] | 0.0202
[4] | 0.121

fitness, [6]
Conditions | first compound 0.2 µg/mL | first compound 0.4 µg/mL | first compound 0.42 µg/mL | first compound 0.8 µg/mL
partner 0.03 µg/mL | 0.862 | 0.731 | 0.275 | 0.411
partner 0.06 µg/mL | 0.796 | 0.753 | 0.233 | –
partner 0.12 µg/mL | 0.626 | 0.611 | 0.183 | 0.427

CO[C@H]1/C=C/O[C@@]2(C)Oc3c(C)c(O)c4c(O)c(c(/C=N/N5CCN(C)CC5)c(O)c4c3C2=O)NC(=O)/C(C)=C\C=C\[C@H](C)[C@H](O)[C@@H](C)[C@@H](O)[C@@H](C)[C@H](OC(C)=O)[C@@H]1C [Rifampicin] + Cn1nnc(-c2ccc(-c3ccc(N4C[C@H](CO)OC4=O)cc3F)cn2)n1 [Tedizolid]
Conditions | Bliss interaction score
[1] | -0.0782
[2] | -0.0238
[3] | 0.0203
[4] | 0.133

fitness, [6], one replicate
Conditions | partner 0.125 µg/mL | partner 0.25 µg/mL | partner 0.5 µg/mL
first compound 0.025 µg/mL | 0.832 | 0.726 | 0.254
first compound 0.2 µg/mL | – | 0 | 0

fitness, [6]
Conditions | partner 0.03125 µg/mL | partner 0.0625 µg/mL | partner 0.125 µg/mL | partner 0.25 µg/mL | partner 0.5 µg/mL
first compound 0.05 µg/mL | 0.98 | 0.97 | 0.907 | 0.591 | 0.21
first compound 0.1 µg/mL | 0.743 | 0.79 | – | 0.343 | 0.181
first compound 0.2 µg/mL | 0.197 | 0.233 | 0.122 | – | –

CC(=O)NC[C@H]1CN(c2ccc(N3CCOCC3)c(F)c2)C(=O)O1 [Linezolid] + CN(C)c1cc(NC(=O)CNC(C)(C)C)c(O)c2c1C[C@H]1C[C@H]3[C@H](N(C)C)C(O)=C(C(N)=O)C(=O)[C@@]3(O)C(O)=C1C2=O [Tigecycline]
Conditions | Bliss interaction score
[1] | 0.11
[2] | -0.0561
[3] | -0.0817
[4] | -0.158

fitness, [7], one replicate
Conditions | partner 0.039 µg/mL | partner 0.078 µg/mL | partner 0.125 µg/mL | partner 0.156 µg/mL | partner 0.25 µg/mL | partner 0.5 µg/mL
first compound 0.0625 µg/mL | 0.872 | 0.848 | – | 0.896 | – | –
first compound 0.125 µg/mL | – | – | ≥ 1 | – | 0.871 | 0.909
first compound 0.25 µg/mL | – | – | 0.906 | – | 0.839 | 0.782
first compound 0.5 µg/mL | – | – | 0.214 | – | 0.0983 | 0.111

Conditions | fitness
[6], first compound 0.105 µg/mL, partner 0.65 µg/mL | 0.829
[6], first compound 0.105 µg/mL, partner 1.3 µg/mL | 0.785
[6], first compound 0.105 µg/mL, partner 2.6 µg/mL | 0.801
[6], first compound 0.2 µg/mL, partner 0.65 µg/mL | 0.712
[6], first compound 0.2 µg/mL, partner 1.3 µg/mL | 0.694
[6], first compound 0.2 µg/mL, partner 2.6 µg/mL | 0.692
[6], first compound 0.21 µg/mL, partner 0.65 µg/mL | 0.718
[6], first compound 0.21 µg/mL, partner 1.3 µg/mL | 0.71
[6], first compound 0.21 µg/mL, partner 2.6 µg/mL | 0.66
[6], first compound 0.4 µg/mL, partner 0.65 µg/mL | 0.588
[6], first compound 0.4 µg/mL, partner 1.3 µg/mL | 0.582
[6], first compound 0.4 µg/mL, partner 2.6 µg/mL | 0.552
[6], first compound 0.42 µg/mL, partner 0.65 µg/mL | 0.393
[6], first compound 0.42 µg/mL, partner 1.3 µg/mL | 0.366
[6], first compound 0.42 µg/mL, partner 2.6 µg/mL | 0.323
[6], first compound 0.8 µg/mL, partner 0.65 µg/mL | 0.252
[6], first compound 0.8 µg/mL, partner 1.3 µg/mL | 0.273
[6], first compound 0.8 µg/mL, partner 2.6 µg/mL | 0.275
[7], first compound 0.125 µg/mL, partner 0.039 µg/mL | 0.542
[7], first compound 0.125 µg/mL, partner 0.078 µg/mL | 0.537
[7], first compound 0.125 µg/mL, partner 0.156 µg/mL | 0.543
[7], first compound 0.25 µg/mL, partner 0.078 µg/mL | 0.0754
[7], first compound 0.25 µg/mL, partner 0.156 µg/mL | 0.0704
[7], first compound 0.5 µg/mL, partner 0.039 µg/mL | 0.0624
[7], first compound 0.5 µg/mL, partner 0.078 µg/mL | 0.0638
[7], first compound 0.5 µg/mL, partner 0.156 µg/mL | 0.0364

CC(=O)NC[C@H]1CN(c2ccc(N3CCOCC3)c(F)c2)C(=O)O1 [Linezolid] + CN[C@@H]1[C@H](O[C@H]2[C@H](O[C@H]3[C@H](O)[C@@H](O)[C@H](N=C(N)N)[C@@H](O)[C@@H]3N=C(N)N)O[C@@H](C)[C@]2(O)C=O)O[C@@H](CO)[C@H](O)[C@H]1O [Streptomycin]
Conditions | Bliss interaction score
[1] | 0.0492
[2] | -0.0504
[3] | -0.0536
[4] | -0.112

fitness, one replicate
Conditions | partner 2 µg/mL | partner 4 µg/mL | partner 8 µg/mL | partner 16 µg/mL
[6], first compound 0.2 µg/mL | 0.826 | – | – | 0.584
[6], first compound 0.4 µg/mL | 0.659 | – | – | 0.41
[6], first compound 0.8 µg/mL | 0.292 | – | – | 0.163
[7], first compound 0.0625 µg/mL | 0.938 | 0.556 | 0.0308 | –

fitness
Conditions | partner 2 µg/mL | partner 4 µg/mL | partner 8 µg/mL
[6], first compound 0.105 µg/mL | 0.763 | 0.752 | 0.803
[6], first compound 0.2 µg/mL | – | 0.781 | 0.684
[6], first compound 0.21 µg/mL | 0.655 | 0.683 | 0.719
[6], first compound 0.4 µg/mL | – | 0.625 | 0.56
[6], first compound 0.42 µg/mL | 0.376 | 0.337 | 0.307
[6], first compound 0.8 µg/mL | – | 0.283 | 0.233
[7], first compound 0.125 µg/mL | 0.543 | 0.454 | 0.0968
[7], first compound 0.25 µg/mL | 0.142 | 0.0931 | 0.0559
[7], first compound 0.5 µg/mL | 0.0384 | 0.0468 | 0.0218
